What was measured:
MmpL3ΔC D58A [1] = target: T1, MmpL3ΔC D58A (Mycobacterium tuberculosis, UniProt P9WJV5, D58A); format: biochemical
MmpL3ΔC S66A [2] = target: T2, MmpL3ΔC S66A (Mycobacterium tuberculosis, UniProt P9WJV5, S66A); format: biochemical
MmpL3ΔC [3] = target: T3, MmpL3ΔC (Mycobacterium tuberculosis, UniProt P9WJV5); format: biochemical
MmpL3ΔC H68A = MmpL3ΔC H68A (Mycobacterium tuberculosis, UniProt P9WJV5, H68A); format: biochemical
MmpL3ΔC [4] = target: T3, MmpL3ΔC; format: biochemical; remark: listed apart in the source
MmpL3ΔC D139A [5] = target: T4, MmpL3ΔC D139A (Mycobacterium tuberculosis, UniProt P9WJV5, D139A); format: biochemical
[6] = tested on: MsmgΔmmpL3/pMVGH1-mmpL3tb (D58A); format: cell-based; conditions: disc with 5 µg, 7H11-ADC agar, 4 days at 37°C
MmpL3ΔC S66A [7] = target: T2, MmpL3ΔC S66A; format: biochemical; remark: listed apart in the source
MmpL3ΔC D58A [8] = target: T1, MmpL3ΔC D58A; format: biochemical; remark: listed apart in the source
MmpL3ΔC D139A [9] = target: T4, MmpL3ΔC D139A; format: biochemical; remark: listed apart in the source
MmpL3ΔC [10] = target: T3, MmpL3ΔC; format: biochemical; remark: listed apart in the source

| Compound | Rate of fluorescence change (lipid transport activity) (MmpL3ΔC D58A [1]) [RU/s/µM protein] | Effect on remaining lipid transfer activity (in words) (MmpL3ΔC S66A [2]) | Rate of fluorescence change (lipid transport activity) (MmpL3ΔC S66A [2]) [RU/s/µM protein] | Effect on asymmetry of NBD-PE lipid distribution in proteoliposomes (flippase activity) (MmpL3ΔC [3]) | Rate of fluorescence change (lipid transport activity) (MmpL3ΔC H68A) [RU/s/µM protein] | Rate of fluorescence change (lipid transport activity) (MmpL3ΔC [4]) [RU/s/µM protein] | Rate of fluorescence change (lipid transport activity) (MmpL3ΔC D139A [5]) [RU/s/µM protein] | Susceptibility to growth inhibition (zone of inhibition) compared with cells producing WT Mtb MmpL3 [6] | Stimulation of the variant by ligand (in words) (MmpL3ΔC S66A [7]) | Effect on H+ transfer activity (in words) (MmpL3ΔC D58A [8]) | Effect on H+ transfer activity (in words) (MmpL3ΔC D139A [9]) | Effect on H+ transfer activity (in words) (MmpL3ΔC [10]) |
| --- | --- | --- | --- | --- | --- | --- | --- | --- | --- | --- | --- | --- |
| CC(C)=CCC/C(C)=C/CNCCNC1C2CC3CC(C2)CC1C3 (centres unmarked) [SQ109] | 10.7 | inhibited | -0.15 | unaffected | -0.12 | 2.04 | 2.52 | less susceptible | – | – | – | – |
| CCCCCCCCCCCCCCCC(=O)OC[C@H]1O[C@H](O[C@H]2O[C@H](CO)[C@@H](O)[C@H](O)[C@H]2O)[C@H](O)[C@@H](O)[C@@H]1O [Tre-C16] | 11.53 | inhibited | -0.02 | unaffected | -0.62 | 1.32 | 13.43 | – | no significant stimulation | stimulated | stimulated by Tre-C16 even more strongly than the parent protein | strongly stimulated |
| OC[C@H]1O[C@H](O[C@H]2O[C@H](CO)[C@@H](O)[C@H](O)[C@H]2O)[C@H](O)[C@@H](O)[C@@H]1O [trehalose] | 7.22 | inhibited | 1.20 | unaffected | 0.37 | 2.96 | 18.84 | – | no significant stimulation | weakly | – | weakly |

Source: publication PMC11481577, “Allosteric coupling of substrate binding and proton translocation in MmpL3 transporter from Mycobacterium tuberculosis” (mBio, 2024)
